Experiment [1] addresses Multidrug resistance protein CDR1 (Candida albicans, UniProt P43071). The experiment is described as follows: CaCdr1 efflux pump inhibitor potency, dose response, singleplex, Cherry Pick2 set (AID 623996). The format is functional. The settings on record: read-out: EC50_MICROM.
In experiment [2] the target is Benomyl/methotrexate resistance protein (Candida albicans, UniProt P28873). The experiment is described as follows: CaMdr1 efflux pump inhibitor potency, dose response, singleplex, Cherry Pick1 hits (AID 588608). The format is functional.
Benomyl/methotrexate resistance protein, sequence (P28873 whole entry): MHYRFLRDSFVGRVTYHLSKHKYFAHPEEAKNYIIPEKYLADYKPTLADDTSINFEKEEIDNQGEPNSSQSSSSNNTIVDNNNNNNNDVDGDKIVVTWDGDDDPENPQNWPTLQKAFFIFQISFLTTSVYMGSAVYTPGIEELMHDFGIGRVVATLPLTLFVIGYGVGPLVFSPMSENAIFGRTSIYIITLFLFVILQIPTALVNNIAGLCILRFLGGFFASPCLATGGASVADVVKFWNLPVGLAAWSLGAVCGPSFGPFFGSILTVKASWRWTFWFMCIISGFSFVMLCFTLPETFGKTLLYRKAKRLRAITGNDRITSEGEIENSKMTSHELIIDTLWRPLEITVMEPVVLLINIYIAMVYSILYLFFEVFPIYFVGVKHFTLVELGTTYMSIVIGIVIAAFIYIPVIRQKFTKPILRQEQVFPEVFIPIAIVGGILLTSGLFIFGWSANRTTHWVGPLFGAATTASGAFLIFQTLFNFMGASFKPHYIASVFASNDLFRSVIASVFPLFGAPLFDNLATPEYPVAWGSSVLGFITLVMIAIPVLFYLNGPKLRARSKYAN

Activity calls are given as the source filed them. Unless noted, the calls are words filed in the database; no cut-off is given here.

Multidrug resistance protein CDR1, sequence (P43071 whole entry, looked up): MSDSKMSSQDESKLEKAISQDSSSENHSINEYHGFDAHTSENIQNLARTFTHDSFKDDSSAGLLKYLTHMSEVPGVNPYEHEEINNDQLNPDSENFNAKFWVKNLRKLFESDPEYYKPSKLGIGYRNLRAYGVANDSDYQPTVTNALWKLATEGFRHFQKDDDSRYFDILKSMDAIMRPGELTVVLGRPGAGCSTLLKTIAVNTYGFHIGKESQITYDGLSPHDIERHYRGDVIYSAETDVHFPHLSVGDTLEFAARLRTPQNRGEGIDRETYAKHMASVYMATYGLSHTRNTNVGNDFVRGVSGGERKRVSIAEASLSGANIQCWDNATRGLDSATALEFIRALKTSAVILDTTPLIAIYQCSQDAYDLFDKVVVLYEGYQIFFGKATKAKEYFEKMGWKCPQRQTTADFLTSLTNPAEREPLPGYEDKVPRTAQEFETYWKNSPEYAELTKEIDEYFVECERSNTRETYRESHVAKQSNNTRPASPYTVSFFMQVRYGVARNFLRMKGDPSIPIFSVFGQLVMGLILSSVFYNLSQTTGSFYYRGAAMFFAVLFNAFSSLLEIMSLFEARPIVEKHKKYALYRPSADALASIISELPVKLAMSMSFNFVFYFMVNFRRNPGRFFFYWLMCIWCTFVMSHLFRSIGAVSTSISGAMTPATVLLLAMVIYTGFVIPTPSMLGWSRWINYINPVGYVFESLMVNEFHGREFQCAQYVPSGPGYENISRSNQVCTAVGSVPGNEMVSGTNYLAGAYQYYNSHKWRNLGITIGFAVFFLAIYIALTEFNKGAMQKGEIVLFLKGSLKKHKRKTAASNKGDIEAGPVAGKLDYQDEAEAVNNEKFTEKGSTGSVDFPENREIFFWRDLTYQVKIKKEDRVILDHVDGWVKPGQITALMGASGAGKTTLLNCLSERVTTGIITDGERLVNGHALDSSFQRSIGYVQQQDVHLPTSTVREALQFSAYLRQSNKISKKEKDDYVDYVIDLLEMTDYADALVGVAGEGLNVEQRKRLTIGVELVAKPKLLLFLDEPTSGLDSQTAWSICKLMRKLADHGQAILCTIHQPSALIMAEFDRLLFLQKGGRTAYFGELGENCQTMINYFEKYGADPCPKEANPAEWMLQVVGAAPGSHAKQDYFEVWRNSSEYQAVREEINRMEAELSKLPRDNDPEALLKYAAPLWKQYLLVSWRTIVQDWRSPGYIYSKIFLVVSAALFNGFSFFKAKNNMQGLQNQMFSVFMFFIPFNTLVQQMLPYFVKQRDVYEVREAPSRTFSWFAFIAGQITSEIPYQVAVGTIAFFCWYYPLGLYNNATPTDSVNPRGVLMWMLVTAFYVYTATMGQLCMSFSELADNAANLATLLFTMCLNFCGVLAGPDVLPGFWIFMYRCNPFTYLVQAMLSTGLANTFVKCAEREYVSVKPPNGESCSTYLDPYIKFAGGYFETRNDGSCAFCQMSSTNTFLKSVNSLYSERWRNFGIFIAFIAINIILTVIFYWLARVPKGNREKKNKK

For the molecule `CC(C)C(=O)N1CCC2(CC1)Oc1ccc(F)cc1C(=O)C21CC(c2ccccc2)=NO1` (configuration not stated), the EC50 in experiment [1] was 23.9 µM (active); in experiment [2], 12.5 µM (active).

Values taken from ChEMBL document CHEMBL1201862, “PubChem BioAssay data set” (2004).
